Entries after “also recorded” stand apart in the source; their conditions may differ.
What was measured:
[1] = Whole brain allantoin levels after subcutaneous allantoin pellets (blood brain barrier crossing); assay type: in vivo, Sprague Dawley rats; settings: non-lesioned rats, s.c. allantoin pellets, three days following pellet implantation, relative to control rats
From the text: Continuous s.c. delivery of INO, KO and ALL was achieved by implanting matrix-driven pellets into the s.c. space. Animals were anesthetized with isofluorane and prepared for surgery using sterile procedures. A small incision was made posterior to the scapula and the pellet was placed in the subscapular space contralateral to the incision. This placement technique prevents migration of the pellet towards the incision, thereby reducing the incidents of rejection. Finally, the incision was closed using aseptic procedures. To determine the roles of UA and allantoin in inosine-mediated neuroprotection, animals were treated with the urate oxidase inhibitor KO. This approach has been widely used to prevent the enzymatic metabolism of UA to allantoin in other rodent models of disease.
To measure brain allantoin levels, whole brains were freeze dried, ground into a fine powder and homogenized in 0.8 ml of 2.5% trichloroacetic acid (TCA) per 100 mg. The homogenate was centrifuged at 18,000 rpm for 15 min. […] The remaining supernatant was then analyzed for allantoin.
To determine the ability of allantoin to cross the intact blood brain barrier (BBB), non-lesioned rats received either allantoin pellets or sham implantation. […] Whole brain levels of allantoin were determined enzymatically.

[2] = tested on: NOX-1 expression in the SN; assay: NOX-1 immunohistochemistry, counts of NOX-1ir cells in the SN after 6-OHDA; assay type: in vivo, Sprague Dawley rats
Method: Rats were anesthetized prior to surgery with Equi-Thesin (0.3 ml/100 g body weight i.p.; chloral hydrate 42.5 mg/ml+sodium pentobarbital 9.72 mg/ml), their heads shaved, and then they were placed in a stereotaxic frame. Their skin was swabbed with Betadyne followed by 70% ETOH. The scalp was then opened to expose the skull. Two 1 mm holes were drilled into the skull and rats were injected in two sites in the striatum with 6-OHDA (MP Biomedicals, Solon, Ohio; 5 μg/μl 6-OHDA in 0.2% ascorbic acid, 0.9% saline solution). The coordinates for these injections were AP −1.6 mm, ML +2.4 mm, DV −4.2 mm and AP −0.2 mm, +ML 2.6 mm, DV −7.0 mm. The needle was zeroed at the skull directly above the injection site in order to target the DV coordinate. For each injection, the needle was lowered slowly to the injection site and 1 minute elapsed before injection commenced, 6-OHDA was injected at 0.5 μl/minute and at the end of the injection the needle was held in place for an additional 2 minutes prior to retraction. The wound area was cleaned with Betadine solution and the scalp was closed with surgical wound clips. This lesion paradigm results in a progressive loss of TH phenotype and frank DA cell death.
Brains were frozen on dry ice and sectioned at a 40 μm thickness using a sliding microtome. Every sixth section through the midbrain was for incubated 30 minutes in sodium citrate 10 mM at 80 degrees Celsius. Following blocking in 10% normal goat serum, tissue was incubated in primary antisera directed against NOX-1 (Santa Cruz Biotechnology, Santa Cruz, Calif., 1:1000). Following primary incubation, sections were incubated in biotinylated secondary antisera against rabbit IgG (Vector Laboratory, Burlingame, Calif., 1:200) followed by the Vector ABC detection kit employing horseradish peroxidase. Antibody labeling was visualized by exposure to 0.5 mg/ml 3,3′ diaminobenzidine (DAB) and 0.03% H2O2 in Tris buffer. Sections were mounted on subbed slides, dehydrated to xylene and coverslipped with Cytoseal.
Absolute counts of NOX-1ir cells was performed using a BX52 Olympus microscope interfaced with Microbrightfield stereological software and a Microfire CCD camera. Counts of NOX1-ir neurons were made at 20× and the sum of these values was adjusted according to the method of Abercrombie (Abercrombie, M., Estimation of nuclear populations from microtome sections, Anat. Rec. 94:239-247 (1946)). To assure that no cells were excluded or counted more than once, each cell was marked utilizing StereoInvestigator 7.0 (Microbrightfield Williston, Vt.). The total number of markers recorded by the software was utilized to estimate the total number of NOX-1ir cells (Fawcettt, et al., Dopaminergic neuronal survival and the effects of bFGF in explant, three dimensional and monolayer cultures of embryonic rat ventral mesencephalon, Exp. Brain Res. 106:275-82 (1995)).
Increased NOX-1 expression is directly linked to increased oxidative stress (Vignais, P., The superoxide-generating NADPF oxidase: structural aspects and activation mechanism, Cell Mol. Life Sci. 59:1428-59 (2002)). To determine the effect of ALL on NOX-1 expression in the SN and Red Nucleus, animals received either ALL pellets (n=6) or sham implantation (n=6). Pellet implantation surgery took place 3 days prior to intrastriatal 6-OHDA infusion. Twenty-four hours post-lesion, animals were sacrificed via intracardial saline perfusion and the SN was processed for NOX-1 immunohistochemistry.

[3] = s.c. ALL pellets 3 days prior to 6-OHDA, twenty-four hours post-lesion, vs untreated controls

NC(=O)NC1NC(=O)NC1=O (stereo not drawn) [allantoin]
whole brain allantoin levels [1]: approximately double; also recorded: significant increase
number of NOX-1ir cells in the SN ([2]; s.c. ALL pellets 3 days prior to 6-OHDA, overall treatment effect): decreased
number of NOX-1ir cells in the 6-OHDA lesioned SN [2, 3]: significant decrease
number of NOX-1ir cells in the intact SN [2, 3]: significant decrease
number of NOX-1ir cells in the 6-OHDA lesioned SN ([2]; s.c. ALL pellets 3 days prior to 6-OHDA, twenty-four hours post-lesion, vs untreated controls, listed as ALL): significantly reduced
NOX-1 expression induced by 6-OHDA ([2]; s.c. allantoin pellets, SN): significantly reduced
